Results: PubChem BioAssay AID292 (DTP/NCI, 2004)
Several values for one entry are separate records, joined by “and”; a condition that tells them apart may be missing. Equal entries are not always repeated. Toxic doses and inconclusive results are not listed. The calls were made as follows: active = survival T/C of 150% or more; inactive = T/C below 125% in these data.

Test system: B6C3F1 mice, ip Sarcoma M5076, median survival T/C
Test: NCI In Vivo Anticancer Drug Screen. Data for tumor model Sarcoma M5076 (intraperitoneal) in B6C3F1 mice
Details: endpoint: median survival time, higher = longer survival
Method in brief: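 Mice carrying the transplanted tumour received compound treatment. Survival was recorded, and each value is the treated-group measurement divided by that of the vehicle-dosed control group.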

[1] = dose: 12.5 mg/kg/injection, schedule: Q04DX004 (ip), vehicle: Klucel (hydroxypropylcellulose) (HPC)
[2] = dose: 25.0 mg/kg/injection, schedule: Q04DX004 (ip), vehicle: Klucel (hydroxypropylcellulose) (HPC)
[3] = dose: 50.0 mg/kg/injection, schedule: Q04DX004 (ip), vehicle: Klucel (hydroxypropylcellulose) (HPC)
[4] = dose: 100.0 mg/kg/injection, schedule: Q04DX004 (ip), vehicle: Klucel (hydroxypropylcellulose) (HPC)

Measured: T/C

NC1=NCc2c(sc3c2CCCC3)N1
inactive: [1] 94 % of control | [2] 94 % of control | [3] 96 % of control | [4] 93 % of control

OCCOCCN1CCN(CCCN2c3ccccc3Sc3ccc(C(F)(F)F)cc32)CC1
inactive: dose: 0.75 mg/kg/injection, schedule: Q04DX004 (ip), vehicle: saline 105 % of control | dose: 1.5 mg/kg/injection, schedule: Q04DX004 (ip), vehicle: saline 110 % of control | dose: 3.0 mg/kg/injection, schedule: Q04DX004 (ip), vehicle: saline 91 % of control | dose: 6.0 mg/kg/injection, schedule: Q04DX004 (ip), vehicle: saline 105 % of control | dose: 7.5 mg/kg/injection, schedule: Q04DX004 (ip), vehicle: saline 96 % of control and 100 % of control and 103 % of control | dose: 12.0 mg/kg/injection, schedule: Q04DX004 (ip), vehicle: saline 104 % of control | dose: 15.0 mg/kg/injection, schedule: Q04DX004 (ip), vehicle: saline 102 % of control and 107 % of control and 119 % of control | dose: 30.0 mg/kg/injection, schedule: Q04DX004 (ip), vehicle: saline 101 % of control and 107 % of control and 122 % of control | dose: 60.0 mg/kg/injection, schedule: Q04DX004 (ip), vehicle: saline 96 % of control (2×) and 101 % of control

O=C1NC2(CCCCC2)C(=O)N1CCN(CCCl)CCCl
inactive: dose: 0.75 mg/kg/injection, schedule: Q01DX009 (ip), vehicle: saline with Tween-80 111 % of control | dose: 1.5 mg/kg/injection, schedule: Q01DX009 (ip), vehicle: saline with Tween-80 113 % of control
active: dose: 7.2 mg/kg/injection, schedule: Q01DX009 (ip), vehicle: saline with Tween-80 154 % of control | dose: 12.0 mg/kg/injection, schedule: Q01DX009 (ip), vehicle: saline with Tween-80 166 % of control and 176 % of control | dose: 20.0 mg/kg/injection, schedule: Q01DX009 (ip), vehicle: saline with Tween-80 244 % of control

C/C(=C\c1ccccc1)C1C(C#N)C(=O)NC(=O)C1C#N (stereo not given)
inactive: [3] 100 % of control | [4] 113 % of control | dose: 200.0 mg/kg/injection, schedule: Q04DX004 (ip), vehicle: Klucel (hydroxypropylcellulose) (HPC) 106 % of control | dose: 400.0 mg/kg/injection, schedule: Q04DX004 (ip), vehicle: Klucel (hydroxypropylcellulose) (HPC) 106 % of control

COc1ccc2nc(C)cc(N/N=C/c3cccnc3)c2c1
inactive: [1] 104 % of control | [2] 114 % of control | [3] 116 % of control | [4] 117 % of control

CCN(CC)CCn1c2c(c3ccc(OC)cc31)CCN1CC3CC(OC(=O)c4cc(OC)c(OC)c(OC)c4)C(OC)C(C(=O)OC)C3CC21 (stereo not given)
inactive: dose: 25.0 mg/kg/injection, schedule: Q04DX004 (ip), vehicle: saline 105 % of control | dose: 50.0 mg/kg/injection, schedule: Q04DX004 (ip), vehicle: saline 97 % of control | dose: 100.0 mg/kg/injection, schedule: Q04DX004 (ip), vehicle: saline 97 % of control | dose: 200.0 mg/kg/injection, schedule: Q04DX004 (ip), vehicle: saline 86 % of control

O=C1C(=O)C(CN2CCOCC2)=C(N2CCOCC2)C(N2CCOCC2)=C1CN1CCOCC1
inactive: dose: 25.0 mg/kg/injection, schedule: Q04DX004 (ip), vehicle: saline with Tween-80 96 % of control | dose: 50.0 mg/kg/injection, schedule: Q04DX004 (ip), vehicle: saline with Tween-80 101 % of control | dose: 100.0 mg/kg/injection, schedule: Q04DX004 (ip), vehicle: saline with Tween-80 94 % of control | dose: 200.0 mg/kg/injection, schedule: Q04DX004 (ip), vehicle: saline with Tween-80 88 % of control | dose: 400.0 mg/kg/injection, schedule: Q04DX004 (ip), vehicle: saline with Tween-80 92 % of control

Cn1cnc([N+](=O)[O-])c1SCC(=O)O
inactive: dose: 75.0 mg/kg/injection, schedule: Q04DX004 (ip), vehicle: Klucel (hydroxypropylcellulose) (HPC) 92 % of control | dose: 150.0 mg/kg/injection, schedule: Q04DX004 (ip), vehicle: Klucel (hydroxypropylcellulose) (HPC) 101 % of control | dose: 300.0 mg/kg/injection, schedule: Q04DX004 (ip), vehicle: Klucel (hydroxypropylcellulose) (HPC) 98 % of control | dose: 600.0 mg/kg/injection, schedule: Q04DX004 (ip), vehicle: Klucel (hydroxypropylcellulose) (HPC) 93 % of control | dose: 1200.0 mg/kg/injection, schedule: Q04DX004 (ip), vehicle: Klucel (hydroxypropylcellulose) (HPC) 92 % of control
